Results on three compounds are retold here after patent US6777426B2, “Imidazole and imidazoline derivatives and uses thereof” (Synaptic Pharmaceutical Corporation, priority 1997, dated 2004).

Where a name gives a salt, the structure may show the parent alone. Read-outs that look alike come from different tables or passages of the source.

The target in series [1] is T1, human α2c adrenergic receptor (Homo sapiens, UniProt P18825).
T1 construct: The entire coding region of α2c (1383 bp), including 2 bp of 5′ UT and 400 bp of 3′ UT; expressed in transfected cells; host or cells: LM(tk−) cells (L-α2c, ATCC CRL-11181), vector pCEXV-3
T1 sequence (P18825 1-462): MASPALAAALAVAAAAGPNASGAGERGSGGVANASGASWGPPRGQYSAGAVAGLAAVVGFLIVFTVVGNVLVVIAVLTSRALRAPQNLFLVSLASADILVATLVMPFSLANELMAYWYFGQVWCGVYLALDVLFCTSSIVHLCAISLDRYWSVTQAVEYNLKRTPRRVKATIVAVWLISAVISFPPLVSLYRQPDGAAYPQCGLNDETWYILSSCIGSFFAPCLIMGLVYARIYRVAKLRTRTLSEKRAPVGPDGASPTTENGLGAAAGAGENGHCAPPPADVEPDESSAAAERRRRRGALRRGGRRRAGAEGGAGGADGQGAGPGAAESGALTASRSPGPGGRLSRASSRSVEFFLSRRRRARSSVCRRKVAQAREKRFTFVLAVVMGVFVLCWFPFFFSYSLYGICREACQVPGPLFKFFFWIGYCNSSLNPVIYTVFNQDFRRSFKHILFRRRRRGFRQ
Briefly: α2 agonist activity: inhibition of forskolin-stimulated cAMP synthesis, α2c cells. It counts as cell-based. The note with it: inhibition of forskolin-stimulated cAMP, cloned human α2c; for EC50: read-out: α2c pEC50 (converted). As for the experimental part:
(§1) Binding and functional assays were performed using stably transfected cells expressing human α adrenergic receptors. Equilibrium competition binding assays were performed with membrane preparations from cultured LM(tk−) cells stably transfected with the cloned human adrenoceptor subtypes except for a21, which was expressed In Y-1 cells, using [^3H]prazosin for α1 receptors and [^3H]rauwolscine for […].
(§2) These cell lines were prepared by transfecting cloned cDNA or cloned genomic DNA or constructs containing both genomic DNA and cDNA encoding the human a adrenergic receptors as described below.
(§3) The agonist activity (expressed as pEC50) was measured as a function of the ability to inhibit the forskolin-stimulated synthesis of cyclic adenosine monophosphate (cAMP). The stably transfected cells were incubated in Ham's F10 with 5 mM theophylline, 10 mM HEPES, 17 mM pargyline, and/or appropriate concentrations of forskolin for 20 min. at 37° C. in 5% CO2. The tested compounds were then added to a final concentration of 0.001 nM to 1 mM and incubated for an additional 15 min. at 37° C. in 5% CO2. The medium was aspirated and the reaction was stopped by the addition of 100 mM HCl. […] The plates were stored at 4° C. for 15 min. and assayed to determine the linear concentration of cAMP. The appropriate dilution was interpolated from the standard curve of cold cAMP. The assessment of cAMP formation was determined by radioimmunoassay (cAMP radioimmunoassay kit; Advanced magnetics, Cambridge, Mass.). Radioactivity was quantified using a Packard COBRA Auto Gamma counter equipped with data reduction software.

For series [2], the target named is T2, human α2b adrenergic receptor (Homo sapiens, UniProt P18089).
T2 construct: expressed in transfected cells; host or cells: stably transfected cells, vector pcEXV-3; deposited line L-NGC-α2B (ATCC CRL-10275)
T2 sequence (P18089 1-450): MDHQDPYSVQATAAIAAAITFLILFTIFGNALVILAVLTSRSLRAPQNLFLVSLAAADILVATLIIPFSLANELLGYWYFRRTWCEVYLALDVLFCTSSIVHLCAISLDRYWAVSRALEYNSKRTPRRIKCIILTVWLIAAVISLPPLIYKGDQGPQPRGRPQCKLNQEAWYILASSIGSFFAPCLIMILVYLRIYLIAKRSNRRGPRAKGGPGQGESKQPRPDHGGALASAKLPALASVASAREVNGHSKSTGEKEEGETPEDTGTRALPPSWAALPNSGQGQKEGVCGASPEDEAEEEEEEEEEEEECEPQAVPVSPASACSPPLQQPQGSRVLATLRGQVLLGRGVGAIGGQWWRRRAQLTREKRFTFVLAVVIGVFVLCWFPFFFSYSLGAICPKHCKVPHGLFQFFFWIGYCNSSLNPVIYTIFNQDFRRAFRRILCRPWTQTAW
Briefly: α2 agonist activity: inhibition of forskolin-stimulated cAMP synthesis, α2b cells. It counts as cell-based. The note with it: inhibition of forskolin-stimulated cAMP, cloned human α2b; for EC50: read-out: α2b pEC50 (converted). As for the experimental part: as §1, §2, §3

Series [3] deals with T3, human α2a adrenergic receptor (Homo sapiens, UniProt P08913).
T3 construct: expressed in transfected cells; host or cells: LM(tk−) cells (L-α2A, ATCC CRL-11180), vector pCEXV-3
T3 sequence (P08913 1-465): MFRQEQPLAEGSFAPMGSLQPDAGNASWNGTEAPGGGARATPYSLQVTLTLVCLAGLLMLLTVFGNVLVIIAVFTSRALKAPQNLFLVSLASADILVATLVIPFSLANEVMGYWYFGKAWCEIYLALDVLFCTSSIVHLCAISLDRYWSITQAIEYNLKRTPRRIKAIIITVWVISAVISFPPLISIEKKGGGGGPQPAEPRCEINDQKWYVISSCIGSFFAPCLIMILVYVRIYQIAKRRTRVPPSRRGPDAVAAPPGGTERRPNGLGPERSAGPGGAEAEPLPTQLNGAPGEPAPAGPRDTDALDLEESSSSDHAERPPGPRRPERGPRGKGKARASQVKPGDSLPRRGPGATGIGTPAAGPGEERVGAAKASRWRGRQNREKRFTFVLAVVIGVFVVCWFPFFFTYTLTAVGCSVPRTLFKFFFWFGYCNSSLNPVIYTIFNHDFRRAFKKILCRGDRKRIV
The experiment in a line: Equilibrium competition binding, [3H]rauwolscine, cloned human α2a. As to conditions: cloned human α2a, membrane preparations, [3H]rauwolscine; read-out: α2a pKi (converted). As to the method: as §1, §2
The insert housing this coding region was a 2.5 kb Kpnl/HindIII human placenta genomic fragment which was end-blunted by either T4 polymerase or Klenow fragment of DNA polymerase. Stable cell lines were obtained by to-transfection with the plasmid pGCcos3neo (plasmid containing the α2a receptor gene) and the plasmid pGCcos3neo (plasmid containing the aminoglycoside transferase gene) into LM(tk−), CHO, and NIH3T3 cells, using calcium phosphate technique. The cells were grown in a controlled environment (37° C., 5% CO2) as monolayers in Dulbecco's modified Eagle's Medium (GIBCO, Grand Island, N.Y.) containing 25 mM glucose and supplemented with 10% bovine calf serum, 100 units/mL penicillin g, and […] streptomycin sulfate.
(§4) The stable cell lines described above were scraped from culture flasks into 5 mL of 5 mM Tris-HCl, […], pH 7.5, and lysed by sonication. The cell lysates were centrifuged at 1,000 rpm for 5 min. at 4° C., and the supernatant was centrifuged at 30,000×g for 20 min. at 4° C. The pellet was suspended in 50 mM Tris-HCl, 1 mM MgCl2, and 0.1% ascorbic acid at pH 7.5. Binding of the α2 antagonist [^3H]rauwolscine (0.5 nM) or the α1 antagonist [^3H]prazosin (0.5 nM) to membrane preparations of LM(tk−) cells was done in a final volume of 0.25 mL and incubated at 37° C. for 20 min. Nonspecific binding was determined in the presence of […]. The reaction was stopped by filtration through GF/B filters using a cell harvester.

Series [4] addresses T3, human α2a adrenergic receptor. Briefly: α2 agonist activity: inhibition of forskolin-stimulated cAMP synthesis, α2a cells. It is filed as cell-based. As for the experimental part:
as §1, §2, §3

The target in series [5] is T1, human α2c adrenergic receptor. The experiment in a line: Equilibrium competition binding, [3H]rauwolscine, cloned human α2c. The note with it: cloned human α2c, membrane preparations, [3H]rauwolscine; read-out: α2c pKi (converted). As to the method:
as §1, §2
The insert housing this coding region was a 1.8 kb Ncol/EcoR1 human spleen genomic fragment which was end-blunted by either T4 polymerase or Klenow fragment of DNA polymerase. Stable cell lines were selected as described above.
as §4

For series [6], the target named is T2, human α2b adrenergic receptor. The experiment in a line: Equilibrium competition binding, [3H]rauwolscine, cloned human α2b. The note with it: cloned human α2b, membrane preparations, [3H]rauwolscine; read-out: α2b pKi (converted). As for the experimental part: as §1, §2
Stable cell lines were selected as described above.
as §4

[7] abbreviates: inhibition of forskolin-stimulated cAMP, cloned human α2a.

One may read the melting point as the temperature, or range, at which the solid turns liquid. Consider `c1cc2c(cc1NC1=NCCN1)CCC2` [Example 1, 2-(5-Indanylamino)-2-imidazoline], for which the melting point is 41 to 42 °C. For the same compound, in series [1], the “α2c IA (Intrinsic Activity)” value is listed as “(1.00)” and the EC50 was 11.5 nM. Besides, in series [2], the “α2b IA (Intrinsic Activity)” value is given as “(0.53)” and the EC50 was 36.3 nM. In series [3], the Ki was 1.15 nM. This compound also had an EC50 in series [4] of 14.8 nM. For the same compound, the “α2a IA (Intrinsic Activity)” value in series [4] (setting [7]) is listed as “(0.48)”. For the same compound, the Ki in series [5] is 13.8 nM. Moreover, in series [6], the Ki is 2.88 nM.

As for `Cc1nc2c(c(C)c1NC1=NCCN1)CCC2` [Example 30, 2-(5,6-Cyclopenteno-2,4-dimethyl-pyrid-3-yl)amino-2-imidazoline], in series [1], the “α2c IA (Intrinsic Activity)” value was “(1.00)”. Also, the EC50 was 6.31 nM in series [1], 148 nM in series [2] and 2.95 nM in series [4]. The “α2b IA (Intrinsic Activity)” value in series [2] is “(0.43)”. The Ki in series [3] was 17.8 nM; in series [5], 309 nM; in series [6] it was 36.3 nM. Further, the “α2a IA (Intrinsic Activity)” value in series [4] (setting [7]) was “(1.00)”.

Turning to `CC(c1c[nH]cn1)c1cc(-c2ccccc2)nc2ccccc12` (stereo not shown) [Example 36, 4-[1-(1H-Imidazol-4-yl)-ethyl]-2-phenyl-quinoline dihydrochloride], the EC50 in series [1] is 7.24 nM; in series [2], 2820 nM; in series [4] (inhibition of forskolin-stimulated cAMP, cloned human α2a, read-out: α2a pEC50 (converted)), 10000 nM. Also, the Ki is 2.69 nM in series [3], 16.2 nM in series [5] and 40.7 nM in series [6].
